In US20230123334A1, “AMINO LIPID COMPOUND, PREPARATION METHOD THEREFOR, AND APPLICATION THEREOF” (SHENZHEN SHENXIN BIOTECHNOLOGY CO., LTD., priority 2020, published 2023):

System: HEK293 cells
Assay: Preliminary screening as mRNA vectors, EGFP mRNA transfection of HEK293 cells
Type: cell-based
Conditions: EGFP mRNA 50 ng per well, 96-well plates; percentage of GFP fluorescent cells relative to total number of cells (Hoechst)
Procedure, shortened: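 Screening format: EGFP mRNA transfection (50 ng/well) into HEK293 in 10% FBS-supplemented DMEM. Percent green fluorescent cells, normalised to Hoechst nuclear count, gave the value; Lipofectamine2000 was the reference transfectant.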

Compound	Absolute mRNA transfection efficiency in HEK293 cells [%]
CCCCCCCCCCCCCCCCSc1nc(NCCCCCCCC)nc(NCCN(CC)CC)n1 [Compound D7S16N8]	6.5
CCCCCCCCSc1nc(NCCCN2CCOCC2)nc(SCCCCCCCC)n1 [Compound D8S8S8]	48.2
CCCCCCCCCCCSc1nc(NCCCCCCCCC)nc(NCCN(CC)CC)n1 [Compound D7S11N9]	5.0
CCCCCCCCCCCCCCCCNc1nc(NCCN2CCN(C)CC2)nc(SCCCCCCCCCCCCCC)n1 [Compound D5S14N16]	0.6
CCCCCCCCCCCCCCSc1nc(NCCCCCCCCCCCC)nc(NCCN2CCN(C)CC2)n1 [Compound D5S14N12]	11.3
CCCCCCCCCCCCCCCCCCNc1nc(NCCN2CCOCC2)nc(SCCCCCCCCCCCCCC)n1 [Compound D2S14N18]	0.1
CCCCCCCCCCCCNc1nc(NCCCN2CCOCC2)nc(SCCCCCCCCCC)n1 [Compound D8S10N12]	0.1
CCCCCCCCCCCCCCSc1nc(NCCCCCCCCC)nc(NCCN2CCN(C)CC2)n1 [Compound D5S14N9]	44.9
CCCCCCCCCCCCCCCNc1nc(NCCCN2CCOCC2)nc(SCCCCCCCCCCCCCC)n1 [Compound D8S14N15]	0.0
CCCCCCCCCCCCCCSc1nc(NCCN2CCCC2)nc(SCCCCCCC)n1 [Compound D3S7S14]	14.6
CCCCCCCCCSc1nc(NCCCCCC)nc(NCCCN2CCOCC2)n1 [Compound D8S9N6]	0.6
CCCCCCCCCCCCCCSc1nc(NCCCCCCCCCCC)nc(NCCN2CCOCC2)n1 [Compound D2S14N11]	3.5
CCCCCCCCCCCCN(CCCCCCCCCCCC)c1nc(NCCN(C)C)nc(SCCCCCC)n1 [D1S6^2N12]	0.7
CCCCCCCCSc1nc(NCC2CCN(C)CC2)nc(SCCCCCC)n1 [Compound D10S6S8]	6.6
CCCCCCCCCCCCCCCCSc1nc(NCCCCCC)nc(NCCN2CCN(C)CC2)n1 [Compound D5S16N6]	63.2
CCCCCCCCCCCCN(CCCCCCCCCCCC)c1nc(NCCCN2CCN(C)CC2)nc(SCCCCCCCC)n1 [D9S8^2N12]	0.6
CCCCCCCCNc1nc(NCCCN2CCOCC2)nc(SCCCCCC)n1 [Compound D8S6N8]	0.2
CCCCCCCCCCCCCNc1nc(NCCCN2CCN(C)CC2)nc(SCCCCCCCC)n1 [Compound D9S8N13]	46.5
CCCCCCCCCCCCCCCSc1nc(NCCCCCC)nc(NCCN2CCOCC2)n1 [Compound D2S15N6]	4.9
CCCCCCCCCCCCCNc1nc(NCCN(CC)CC)nc(SCCCCCCCCCC)n1 [Compound D7S10N13]	13.7
CCCCCCCCSc1nc(NCCCCCCC)nc(NCCCN2CCN(C)CC2)n1 [Compound D9S8N7]	1.4
CCCCCCCCCCCCCCCCNc1nc(NCCN(C)C)nc(SCCCCCCCCCC)n1 [Compound D1S10N16]	40.7
CCCCCCCCCCCCCCCNc1nc(NCCN(C)C)nc(SCCCCCCCCCCCCCCC)n1 [Compound D1S15N15]	0.3
CCCCCCCNc1nc(NCCN(C)C)nc(SCCCCCC)n1 [Compound D1S6N7]	2.3
CCCCCCCCCCCCNc1nc(NCCN(CC)CC)nc(SCCCCCCCCCCCC)n1 [Compound D7S12N12]	3.7

Compound	Absolute mRNA transfection efficiency in HEK293 cells [%]
CCCCCCCCCCCCSc1nc(NCCCCCC)nc(NCCN(CC)CC)n1 [Compound D7S12N6]	2.1
CCCCCCCCCCCCCCCCCCSc1nc(NCCCCCCCCCCCC)nc(NCCN2CCCC2)n1 [Compound D3S18N12]	5.2
CCCCCCCCCCCCCCCCNc1nc(NCCCN2CCOCC2)nc(SCCCCCC)n1 [Compound D8S6N16]	0.6
CCCCCCCCCCCCCCCCCCNc1nc(NCCN(CC)CC)nc(SCCCCCC)n1 [Compound D7S6N18]	4.6
CCCCCCCCCNc1nc(NCCN2CCN(C)CC2)nc(SCCCCCC)n1 [Compound D5S6N9]	2.0
CCCCCCCCNc1nc(NCCN2CCCC2)nc(SCCCCCC)n1 [Compound D3S6N8]	0.0
CCCCCCCCCCCCSc1nc(NCCCCCCCC)nc(NCCN(C)C)n1 [Compound D1S12N8]	11.3
CCCCCCCCCCSc1nc(NCCCN(C)C)nc(SCCCCCCCC)n1 [Compound D6S8S10]	70.2
CCCCCCCCCCCCCCCCCCNc1nc(NCCCN(C)C)nc(SCCCCCCCCCCC)n1 [Compound D6S11N18]	14.6
CCCCCCCCCCCCCCCCSc1nc(NCCCCCCCCCCCC)nc(NCCN2CCN(C)CC2)n1 [Compound D5S16N12]	3.4
CCCCCCCCCCCCNc1nc(NCC2CCN(C)CC2)nc(SCCCCCCCC)n1 [Compound D10S8N12]	73.1
CCCCCCCCCCCCCCSc1nc(NCCCN2CCOCC2)nc(N(CCCCCCCCCCCC)CCCCCCCCCCCC)n1 [D8S14^2N12]	0.1
CCCCCCCCCCCCCCCCCCNc1nc(NCCCN2CCN(C)CC2)nc(SCCCCCC)n1 [Compound D9S6N18]	24.0
CCCCCCCCCCCCN(CCCCCCCCCCCC)c1nc(NCCCN(C)C)nc(SCCCCCCCCC)n1 [D6S9^2N12]	1.7
CCCCCCCCCCCCCCCCCCSc1nc(NCCCCCC)nc(NCC2CCN(C)CC2)n1 [Compound D10S18N6]	58.8
CCCCCCCCCCCCCCCSc1nc(NCCN2CCCC2)nc(N(CCCCCCCCCCCC)CCCCCCCCCCCC)n1 [D3S15^2N12]	1.7
CCCCCCCCCCCCN(CCCCCCCCCCCC)c1nc(NCCCN(C)C)nc(SCCCCCCCCCC)n1 [D6S10^2N12]	0.1
CCCCCCCCCCCCCNc1nc(NCCN2CCN(C)CC2)nc(SCCCCCCCCCCC)n1 [Compound D5S11N13]	11.2
CCCCCCCCCCCCCCCCSc1nc(NCCCCCCCCCCCC)nc(NCCCN2CCOCC2)n1 [Compound D8S16N12]	0.9
CCCCCCCCCCCCCNc1nc(NCCN2CCCC2)nc(SCCCCCCCCCC)n1 [Compound D3S10N13]	35.0
CCCCCCCCCCCCCCCNc1nc(NCCCN2CCN(C)CC2)nc(SCCCCCCCCCC)n1 [Compound D9S10N15]	5.4
CCCCCCCCCCCCCCCCSc1nc(NCCCCCCCCCCC)nc(NCCN2CCCC2)n1 [Compound D3S16N11]	73.8
CCCCCCCCCCCCCCCCSc1nc(NCCCCCC)nc(NCCCN2CCN(C)CC2)n1 [Compound D9S16N6]	85.7
CCCCCCCCCCCCCCCCSc1nc(NCCCCCCCC)nc(NCCCN2CCOCC2)n1 [Compound D8S16N8]	17.8
